Assay results reported in patent US20190023658A1, “SUBSTITUTED 2-DIFLUOROMETHYL-NICOTIN(THIO)CARBOXANILIDE DERIVATIVES AND THEIR USE AS FUNGICIDES” (Bayer CropScience Aktiengesellschaft, priority 2015, published 2019).

Test: Log P by HPLC on reversed phase columns (EEC directive 79/831 Annex V.A8)
Format: physicochemical
Conditions: [a] LC-UV, acidic range, 0.1% formic acid in water and acetonitrile as eluent
Protocol: Measurement of Log P values was performed according to EEC directive 79/831 Annex V.A8 by HPLC (High Performance Liquid Chromatography) on reversed phase columns with the following methods: [a] Log P value is determined by measurement of LC-UV, in an acidic range, with 0.1% formic acid in water and acetonitrile as eluent (linear gradient from 10% acetonitrile to 95% acetonitrile). [b] Log P value is determined by measurement of LC-UV, in a neutral range, with 0.001 molar ammonium acetate solution in water and acetonitrile as eluent (linear gradient from 10% acetonitrile to 95% acetonitrile). Calibration was done with straight-chain alkan2-ones (with 3 to 16 carbon atoms) with known Log P values (measurement of Log P values using retention times with linear interpolation between successive alkanones). Lambda-max-values were determined using UV-spectra from 200 nm to 400 nm and the peak values of the chromatographic signals.

SMILES	LogP
COC(=N)c1c(F)cc(-c2cccc(F)c2NC(=S)c2cccnc2C(F)F)cc1F [Example I-74]	3.60^[a]
O=C(Nc1ccccc1-c1ccccc1)c1cccnc1C(F)F [Example I-61]	2.55^[a]
O=C(Nc1ccccc1-c1ccc(F)cc1F)c1cccnc1C(F)F [Example I-45]	2.66^[a]
O=C(Nc1ccccc1-c1ccc(C(F)(F)F)c(F)c1)c1cccnc1C(F)F [Example I-43]	3.25^[a]
O=C(Nc1ccccc1-c1ccc(Cl)c(Cl)c1)c1cccnc1C(F)F [Example I-54]	3.35^[a]
O=C(Nc1ccccc1Oc1ccc(C(F)(F)F)cc1)c1cccnc1C(F)F [Example I-07]	3.46^[a]
CON=Cc1c(F)cc(-c2ccccc2NC(=O)c2cccnc2C(F)F)cc1F [Example I-49]	3.17^[a]
O=C(Nc1ccc(F)cc1-c1ccc(F)cc1)c1cccnc1C(F)F [Example I-47]	2.73^[a]
O=C(Nc1ccccc1Oc1cccc(F)c1)c1cccnc1C(F)F [Example I-27]	2.96^[a]
O=C(Nc1ccccc1-c1ccccc1C(F)(F)F)c1cccnc1C(F)F [Example I-44]	2.99
O=C(Nc1ccccc1Oc1ccc(Cl)cc1Cl)c1cccnc1C(F)F [Example I-17]	3.65^[a]
O=C(Nc1ccccc1-c1ccc(F)c(F)c1)c1cccnc1C(F)F [Example I-42]	2.78^[a]
O=C(Nc1ccccc1-c1ccccc1Cl)c1cccnc1C(F)F [Example I-51]	2.74
CCCCOc1c(F)cc(-c2ccccc2NC(=O)c2cccnc2C(F)F)cc1F [Example I-59]	3.99^[a]
O=C(Nc1ccccc1Sc1ccccc1)c1cccnc1C(F)F [Example I-11]	3.21^[a]
O=C(Nc1cccc(Cl)c1Oc1ccc(Cl)cc1)c1cccnc1C(F)F [Example I-10]	3.59^[a]
Fc1ccc(-c2ccccc2NC(=S)c2cccnc2C(F)F)cc1F [Example I-73]	3.27^[a]
O=C(Nc1ccccc1Oc1ccccc1F)c1cccnc1C(F)F [Example I-15]	2.88^[a]
O=C(Nc1ccccc1Sc1ccc(Cl)cc1)c1cccnc1C(F)F [Example I-14]	3.57^[a]
CC(C)(C)C#Cc1ccc(-c2ccccc2NC(=O)c2cccnc2C(F)F)cc1 [Example I-62]	4.29^[a]
O=C(Nc1cc(C(F)(F)F)ccc1Oc1ccccc1)c1cccnc1C(F)F [Example I-24]	3.63^[a]
O=C(Nc1ccccc1Oc1cc(Cl)cc(Cl)c1)c1cccnc1C(F)F [Example I-25]	3.81^[a]
O=C(Nc1ccccc1Oc1ccc(Br)cc1)c1cccnc1C(F)F [Example I-30]	3.39^[a]
O=C(Nc1ccccc1Oc1ccc(Cl)cc1)c1cccnc1C(F)F [Example I-03]	3.33^[a]

SMILES	LogP
CCON=Cc1ccc(-c2ccccc2NC(=O)c2cccnc2C(F)F)cc1 [Example I-41]	3.23^[a]
CSc1ccc(-c2ccccc2NC(=O)c2cccnc2C(F)F)cc1 [Example I-56]	2.94^[a]
O=C(Nc1ccccc1-c1ccc(Cl)c(F)c1)c1cccnc1C(F)F [Example I-35]	3.06^[a]
N#Cc1c(F)cc(-c2ccccc2NC(=S)c2cccnc2C(F)F)cc1F [Example I-71]	3.19^[a]
Cc1cccc(Oc2ccccc2NC(=O)c2cccnc2C(F)F)c1 [Example I-19]	3.23^[a]
O=C(Nc1ccccc1Oc1ccccc1Cl)c1cccnc1C(F)F [Example I-26]	3.11^[a]
O=C(Nc1ccccc1-c1cc(F)cc(F)c1)c1cccnc1C(F)F [Example I-38]	2.80^[a]
N#Cc1ccc(Oc2ccccc2NC(=O)c2cccnc2C(F)F)cc1 [Example I-29]	2.51^[a]
COC(=N)c1c(F)cc(-c2cc(F)ccc2NC(=S)c2cccnc2C(F)F)cc1F [Example I-69]	3.73^[a]
Cc1ccccc1Oc1ccccc1NC(=O)c1cccnc1C(F)F [Example I-02]	3.27^[a]
COc1ccc(Oc2ccccc2NC(=O)c2cccnc2C(F)F)cc1 [Example I-13]	2.90^[a]
O=C(Nc1ccccc1Oc1cc(F)cc(C(F)(F)F)c1)c1cccnc1C(F)F [Example I-04]	3.57^[a]
CCON=Cc1c(F)cc(-c2ccccc2NC(=S)c2cccnc2C(F)F)cc1F [Example I-75]	3.92^[a]
COc1cccc(Oc2ccccc2NC(=O)c2cccnc2C(F)F)c1 [Example I-05]	2.92^[a]
O=C(Nc1ccccc1-c1cccc(C(F)(F)F)c1)c1cccnc1C(F)F [Example I-39]	3.15^[a]
O=C(Nc1ccccc1Oc1cccc(F)c1F)c1cccnc1C(F)F [Example I-08]	2.98^[a]
O=C(Nc1ccccc1-c1cccc(Cl)c1)c1cccnc1C(F)F [Example I-52]	2.96^[a]
CCON=Cc1ccc(-c2ccccc2NC(=S)c2cccnc2C(F)F)cc1 [Example I-67]	3.70^[a]
CCOc1c(F)cc(-c2ccccc2NC(=O)c2cccnc2C(F)F)cc1F [Example I-57]	3.29^[a]
O=C(Nc1ccccc1Oc1cccc(C(F)(F)F)c1)c1cccnc1C(F)F [Example I-18]	3.44^[a]
CON=Cc1ccc(-c2ccccc2NC(=O)c2cccnc2C(F)F)cc1 [Example I-32]	2.86^[a]
O=C(Nc1ccccc1Oc1ccc(F)c(F)c1)c1cccnc1C(F)F [Example I-16]	3.09^[a]
O=C(Nc1ccccc1Oc1ccc(F)cc1)c1cccnc1C(F)F [Example I-28]	2.96^[a]
O=C(Nc1ccccc1S(=O)(=O)c1ccccc1)c1cccnc1C(F)F [Example I-23]	2.56^[a]

SMILES	LogP
O=C(Nc1ccccc1Oc1cc(F)cc(F)c1)c1cccnc1C(F)F [Example I-12]	3.11^[a]
COC(=N)c1c(F)cc(-c2cc(F)ccc2NC(=O)c2cccnc2C(F)F)cc1F [Example I-55]	3.16^[a]
COc1ccccc1Oc1ccccc1NC(=O)c1cccnc1C(F)F [Example I-21]	2.88^[a]
CCON=Cc1c(F)cc(-c2cccc(F)c2NC(=O)c2cccnc2C(F)F)cc1F [Example I-60]	3.35^[a]
O=C(Nc1ccccc1-c1cc(Cl)cc(Cl)c1)c1cccnc1C(F)F [Example I-53]	3.48^[a]
CCON=Cc1c(F)cc(-c2cc(F)ccc2NC(=S)c2cccnc2C(F)F)cc1F [Example I-70]	4.11^[a]
O=C(Nc1ccccc1-c1cc(F)c(F)c(F)c1)c1cccnc1C(F)F [Example I-48]	2.92^[a]
CCON=Cc1c(F)cc(-c2ccccc2NC(=O)c2cccnc2C(F)F)cc1F [Example I-50]	3.46^[a]
O=C(Nc1ccccc1-c1ccc(Cl)cc1)c1cccnc1C(F)F [Example I-40]	2.92^[a]
CON=Cc1c(F)cc(-c2ccccc2NC(=S)c2cccnc2C(F)F)cc1F [Example I-76]	3.55^[a]
CON=Cc1c(F)cc(-c2cccc(F)c2NC(=O)c2cccnc2C(F)F)cc1F [Example I-33]	2.97^[a]
CCON=Cc1c(F)cc(-c2cccc(F)c2NC(=S)c2cccnc2C(F)F)cc1F [Example I-72]	3.99^[a]
O=C(Nc1ccccc1-c1ccc(F)c(Cl)c1)c1cccnc1C(F)F [Example I-66]	3.04^[a]
O=C(Nc1ccc(F)cc1-c1ccc(Cl)c(Cl)c1)c1cccnc1C(F)F [Example I-37]	3.44^[a]
CCCOc1c(F)cc(-c2ccccc2NC(=O)c2cccnc2C(F)F)cc1F [Example I-58]	3.61^[a]
N#Cc1c(F)cc(-c2ccccc2NC(=O)c2cccnc2C(F)F)cc1F [Example I-36]	2.71^[a]
O=C(Nc1ccccc1-c1ccc(C(F)(F)F)c(Cl)c1)c1cccnc1C(F)F [Example I-63]	3.50^[a]
O=C(Nc1ccccc1-c1ccc(F)cc1)c1cccnc1C(F)F [Example I-34]	2.66^[a]
CCON=Cc1c(F)cc(-c2cc(F)ccc2NC(=O)c2cccnc2C(F)F)cc1F [Example I-65]	3.55^[a]
O=C(Nc1cccc(Cl)c1Oc1ccccc1)c1cccnc1C(F)F [Example I-22]	3.15^[a]
O=C(Nc1ccccc1Oc1ccccc1)c1cccnc1C(F)F [Example I-20]	2.90^[a]
O=C(Nc1cccc(Cl)c1Sc1ccccc1)c1cccnc1C(F)F [Example I-09]	3.59^[a]

Same assay, conditions: [b] LC-UV, neutral range, 0.001 molar ammonium acetate solution in water and acetonitrile as eluent

SMILES	LogP
O=C(Nc1ccccc1-c1ccccc1C(F)(F)F)c1cccnc1C(F)F [Example I-44]	2.93
O=C(Nc1ccccc1-c1ccccc1Cl)c1cccnc1C(F)F [Example I-51]	2.68

Same assay, conditions: reversed phase HPLC column; [a] LC-UV, acidic range, 0.1% formic acid in water and acetonitrile as eluent

SMILES	chromatographic logP
Cc1ccc(Oc2ccccc2NC(=O)c2cccnc2C(F)F)cc1 [Example I-01, 2-(difluoromethyl)-N-[2-(4-methylphenoxy)phenyl]nicotinamide]	3.27
FC(F)c1ncccc1C(=S)Nc1ccccc1-c1ccc(C(F)(F)F)c(Cl)c1 [Example I-68, N-[3′-chloro-4′-(trifluoromethyl)biphenyl-2-yl]-2-(difluoromethyl)pyridine-3-carbothioamide]	3.94
